In patent US9868705B2, “Tetra-aryl cyclobutane inhibitors of androgen receptor action for the treatment of hormone refractory cancer” (The Board of Trustees of the University of Illinois, priority 2013, dated 2018):
Positions count from the first letter of the chain named. Like-named read-outs stand apart in the source and are kept apart here.

Key:
[1] = system: XIP-AR cells; assay: XIP-AR cell proliferation; settings: XIP-AR overexpressing cells
[2] = target: T1, AR (Homo sapiens, UniProt P10275); assay: Cellular location of AR by microscopy
T1 sequence (P10275 1-920): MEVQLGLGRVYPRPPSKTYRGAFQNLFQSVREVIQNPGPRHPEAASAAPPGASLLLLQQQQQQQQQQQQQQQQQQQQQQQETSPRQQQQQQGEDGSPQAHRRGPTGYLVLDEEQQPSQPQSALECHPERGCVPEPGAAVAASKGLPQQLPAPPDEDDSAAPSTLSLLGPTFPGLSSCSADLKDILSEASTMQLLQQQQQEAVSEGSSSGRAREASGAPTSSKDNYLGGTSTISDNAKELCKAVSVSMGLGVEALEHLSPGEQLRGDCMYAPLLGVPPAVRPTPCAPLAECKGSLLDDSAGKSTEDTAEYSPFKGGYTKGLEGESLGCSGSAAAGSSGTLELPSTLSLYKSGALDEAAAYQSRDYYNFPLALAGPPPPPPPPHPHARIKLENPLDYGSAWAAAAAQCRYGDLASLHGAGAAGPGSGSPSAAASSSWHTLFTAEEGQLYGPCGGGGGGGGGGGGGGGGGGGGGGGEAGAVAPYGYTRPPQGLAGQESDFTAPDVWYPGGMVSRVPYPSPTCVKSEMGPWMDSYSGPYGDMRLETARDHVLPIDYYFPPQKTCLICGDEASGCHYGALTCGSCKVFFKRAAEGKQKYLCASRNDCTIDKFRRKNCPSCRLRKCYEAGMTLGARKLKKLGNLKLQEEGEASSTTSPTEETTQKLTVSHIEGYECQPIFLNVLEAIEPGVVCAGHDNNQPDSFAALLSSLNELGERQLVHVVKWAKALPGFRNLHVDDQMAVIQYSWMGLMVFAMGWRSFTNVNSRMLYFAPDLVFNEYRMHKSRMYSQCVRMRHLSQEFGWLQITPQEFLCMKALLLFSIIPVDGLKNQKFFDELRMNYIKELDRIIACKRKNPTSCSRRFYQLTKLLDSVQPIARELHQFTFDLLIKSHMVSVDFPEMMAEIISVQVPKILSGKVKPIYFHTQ

[3] = target: T2, T877A mutant androgen receptor (Homo sapiens, UniProt P10275, T878A); assay: FKBP51 endogenous gene expression in LNCaP-XIP cells; assay type: cell-based; settings: FKBP51 expression, T877A mutant receptor
T2 construct: endogenous in cells; host or cells: LNCaP-XIP
T2 sequence (P10275 1-920 T878A): T1 sequence (P10275 1-920) with T878A
Source text: (§1) FIG. 44 depicts data for dose-dependent inhibition of androgen receptor-dependent endogenous gene expression of FKBP51 by Compound 1 of Example IV in LNCaP cells producing exclusively T877A mutant androgen receptor (LNCaP-XIP) and LNCaP cells transfected with wild type androgen receptor (LNCaP-androgen receptor, ratio of wild type to T877A receptor is ca. 3:1).
(§2) To more fully characterize the selectivity of compound 1 for the mutant receptor, we measured its inhibitory potential against the WT and T877A mutant receptor in an AR-dependent luciferase transcription assay in CV-1 cells (FIGS. 43A and B).

[4] = system: wild type androgen receptor; assay: FKBP51 endogenous gene expression in LNCaP-AR cells (wild type AR overexpressed); assay type: cell-based, human; settings: at 20 M (so in the source)
Source text: as §1, §2

[5] = target: T1, AR; assay: AR relative binding affinity (RBA)
[6] = target: T1, AR; assay: AR target gene expression in XIP-AR cells; settings: in the presence of R1881
[7] = system: androgen receptor; assay: Whole-cell competition binding assay using 3H-R1881; settings: whole cells; mutant AR and WT-AR
[8] = target: T3, wild type AR (Homo sapiens, UniProt P10275); assay: MMTV-luciferase transcription assay in CV-1 cells, wild type AR; assay type: cell-based; settings: CV1 transient transfection, MMTV-Luciferase reporter; read-out: IC50 WT
T3 construct: expressed in transfected cells; host or cells: CV-1
T3 sequence (P10275 1-920): T1 sequence (P10275 1-920)
Source text: (§3) These compounds were screened using an AR-responsive MMTV transcription assay in CV-1 cells, utilizing both wild type and T877A (LNCaP) AR. […]

[9] = target: T4, T877A (LNCaP) AR (Homo sapiens, UniProt P10275, T878A); assay: MMTV-luciferase transcription assay in CV-1 cells, T877A AR; assay type: cell-based; settings: CV1 transient transfection, MMTV-Luciferase reporter; read-out: IC50 T877A
T4 construct: expressed in transfected cells; host or cells: CV-1
T4 sequence (P10275 1-920 T878A): T1 sequence (P10275 1-920) with T878A
Source text: as §3

[10] = target: T5, W741C AR (Homo sapiens, UniProt P10275, W742C); assay: MMTV-luciferase transcription assay in CV-1 cells, W741C AR; settings: CV1 transient transfection, MMTV-Luciferase reporter
T5 sequence (P10275 1-920 W742C): T1 sequence (P10275 1-920) with W742C

[11] = system: LNCaP (AR-T877A) xenograft; assay: LNCaP xenograft model of prostate cancer in mice; assay type: in vivo
Source text: Our goal in this example is to identify small molecules that block activity of mutant androgen receptors (ARs) but not wild type AR, by synthesizing a library of compounds, to explore possible mechanisms of action, and to evaluate therapeutic potential. A total of 75 tetra-aryl substituted cyclobutanes (CBs) were synthesized. FIG. 18 illustrates a general reaction scheme for the synthesis of some of these compounds from the photo cycloaddition of 2,4-dichloro-6-styrylpyrimidine. FIG. 19 illustrates a general reaction scheme for the synthesis from the photo cycloaddition of 2,4-disubstituted 6-styrylpyrimidines. LNCaP cell proliferation was evaluated. LNCaP cells are a cell line of human cells commonly used in the field of oncology. LNCaP cells are androgen-sensitive human prostate adenocarcinoma cells derived from the left supraclavicular lymph node metastasis from a person in 1977. They are adherent epithelial cells growing in aggregates and as single cells. […] . FIGS. 21A, B, C, and D are graphic summaries of the results for cyclobutane compound CB-7. […] Prostate cancer was the most common tumor among men in the United States in 2012, with over 240,000 diagnoses and approximately 28,000 deaths. […] . FIG. 23 illustrates the androgen receptor ligand binding domain bound to testosterone. FIG. 24 illustrates mouse survival data from a mutant androgen receptor-T877A xenograft experiment for CB-7 at various concentrations. […] . FIGS. 25A and B provide data on AR mutant selectivity for compounds CB-1 to CB-8. […] It is seen that the cyclobutanes show selectivity of mutant androgen receptor activation in the luciferase transcriptional assay in CV-1 cells (a commercially available cell line derived from the kidney of an African green monkey). FIGS. 26 and 27A and B illustrate data from a ligand competition assay for compounds CB-1, CB-6, and CB-7.
Based on the above results, we further evaluated the effects of CB 10 in vivo. […] We also utilized a traditional in vivo model of prostate cancer, the LNCaP xenograft model.

[12] = system: LNCaP cells; assay: LNCaP cell proliferation; settings: androgen-stimulated LNCaP cells
[13] = target: T1, AR; assay: Chromatin immunoprecipitation of AR at androgen-response elements in XIP-AR cells

CC(C)(O)C(=O)Nc1ccc([N+](=O)[O-])c(C(F)(F)F)c1 [OHF, hydroxyflutamide, reference compound]
cell proliferation, compound alone [1]: promote cell proliferation

C[C@]1(O)CC[C@H]2[C@@H]3CCC4=CC(=O)CCC4=C3C=C[C@@]21C [R1881, reference compound]
cellular location of AR after treatment [2]: promote nuclear translocation

Cc1cc([C@H]2[C@H](c3ccccc3)[C@H](c3cc(C)nc(C)n3)[C@H]2c2ccccc2)nc(C)n1 [CB-49]
concentration at which maximal inhibition is obtained [3]: 6 µM
inhibition of FKBP51 gene expression [4]: ca. 80%
AR RBA [5]: 0.027%

COc1cc(C2C(c3ccccc3)C(c3cc(OC)nc(OC)n3)C2c2ccccc2)nc(OC)n1 (centres unmarked) [CB 1]
reversal of androgen stimulated gene expression [6]: less effective
competition with 3H-R1881 for binding to AR [7]: effectively compete against R1881 binding

CNc1cc([C@H]2[C@H](c3ccccc3)[C@H](c3cc(NC)nc(NC)n3)[C@H]2c2ccccc2)nc(NC)n1 [CB-51]
IC50 [8]: > 20 µM
IC50 [9]: > 20 µM
IC50 W741C [10]: Toxic

Clc1nccc([C@H]2[C@H](c3ccccc3)[C@@H](c3ccnc(Cl)n3)[C@H]2c2ccccc2)n1 [CB 10]
tumor weight at study termination ([11]; escalating dose 5 mpk to 100 mpk): significant dose dependent inhibition of tumor growth
tumor growth ([11]; intact male mice bearing LNCaP xenografts, 50 mpk or 100 mpk): significantly inhibited
inhibition of LNCaP cell proliferation [12]: equally as well as MDV
cellular location of AR after treatment ([2]; microscopy): AR is primarily outside of the nucleus
reversal of androgen stimulated gene expression [6]: reverse androgen stimulated gene expression similar to MDV
competition with 3H-R1881 for binding to AR [7]: effectively compete against R1881 binding
AR recruitment to androgen-response elements of PSA and NKX3.1 [13]: inhibit the recruitment
